Results published in patent publication US20140370131A1, “Pharmaceutical Composition for Protecting Brain Neurons Comprising Plumula Nelumbinis Extract as Active Ingredient” (priority 2012, published 2014).

Tests used:
ICR mice = test: Morris water maze test, scopolamine-induced memory damage; format: in vivo, mouse; conditions: memory acquisition test for 4 days; scopolamine 1 mg/kg i.p.; test samples oral (extract 3, 10, 30, 100, 200 mg/kg)
Procedure: To observe the cell-protecting effect and cognitive function-improving effect of the Plumula nelumbinis extract in vivo using a Morris water maze test, International Cancer Research (ICR) mice having an average weight of about 30 g were purchased and acclimated to the environment of the laboratory for 1 week before use in the experiment. The animal breeding room was maintained at room temperature (ca. 22±2° C.) with 12 h light (200-300 lux)/12 h dark cycles. The animals had free access to food (i.e., 22.1% or more crude protein, 8.0% or less crude fat, 0.6% or more calcium, and 0.4% or more phosphorus; Samyang Corp., Korea) and water. The animals were divided into a control group administered with the same amount of injectable saline without scopolamine (Sigma Aldrich), and a group administered with scopolamine. The group administered with scopolamine was treated with 3, 10, 30, 100 and 200 mg/kg of a 80% methanol extract of Plumula nelumbinis. As a positive control, donepezil was used, which is a cholinesterase inhibitor-based drug approved by the FDA, and is used for the treatment of mild, moderate, or severe Alzheimer's disease and for the alleviation of vascular dementia (i.e., dementia involving cerebrovascular disease).
Each of the test samples and the positive control drug was suspended in injectable sterile water and administered at a unit dose of 10 ml/kg. Scopolamine (1 mg/kg) was administered intraperitoneally each day for 4 days, and the test sample and the positive control drug were administered orally (FIGS. 8A and 8B).
In the water maze test, a learning trial was performed on the day before administration of the extract, and then a memory acquisition test was repeated for 4 days. In the learning trial, each test animal was placed into a water pool ([…]) at one of four release points and allowed to find a platform ([…]) by swimming for 60 seconds. […]
During the memory acquisition test, 1 mg/kg of scopolamine was administered intraperitoneally once a day for 4 days at 60 minutes after administration of the Plumula nelumbinis extract. […] The cognitive ability-improving effect was evaluated by measuring the average swimming time (sec) taken for the test animal to find the platform (sec).
After the learning trial for 1 day, scopolamine was administered to cause damage to cognitive function (memory), and the Moths water maze test was performed to examine the cognitive function-improving effect of the extract. In the memory acquisition test performed over 4 days, the cognitive function-improving effect of the extract was evaluated based on a decrease in each of the average swimming times taken to find the platform and the swimming distance. […]

[1] = DPPH radical scavenging activity; conditions: 30 minutes in the dark, absorbance at 517 nm
Procedure: The test sample was weighed, dissolved in methanol or ethanol, and then filtered through a 0.45-μm filter. The prepared sample was serially diluted. Varying concentrations of 150 μl of each diluted sample were added to a 96-well micro plate, followed by addition of DPPH. The 96-well micro plate was placed in a dark room and allowed to stand for 30 minutes. The absorbance at 517 nm was measured.

[2] = Hydrogen peroxide (H2O2) scavenging activity, ABTS-peroxidase system; conditions: pH 5.0, absorbance at 405 nm
Procedure: Hydrogen peroxide (H2O2) scavenging activity was measured in a 2,2-azinobis(3-ethylbenzthiazolin)-6-sulfonicacid (ABTS)-peroxidase system according to the Muller method. Each sample was diluted at varying concentrations. 80 μL of each sample solution, 20 μL of 10 mM H2O2 and 100 μL of phosphate buffer (pH 5.0, 0.1 M) were added to a 96-well plate and reacted at 37° C. for 5 minutes. Then, 30 μL of 1.25 mM ABTS and 30 μL of 1 U/mL peroxidase were added thereto and reacted at 37° C. for 10 minutes, and the absorbance at 405 nm was measured using an enzyme-linked immunosorbent assay (ELISA) reader.

SMILES	average swimming distance (ICR mice)	average swimming time taken to find the platform (ICR mice)	DPPH radical scavenging IC50 [1] [µg/mL]	hydrogen peroxide (H2O2) scavenging IC50 [2] [µg/mL]
CN1[C@@H]2C[C@@H](OC(=O)[C@H](CO)c3ccccc3)C[C@H]1[C@@H]1O[C@@H]12 [scopolamine]	increased rather than decreased	increased rather than decreased		
O=C1O[C@H]([C@@H](O)CO)C(O)=C1O [vitamin C, ascorbic acid]			27.73	
COc1ccc(O)c(C(C)(C)C)c1 [butylated hydroxy anisole (BHA), butylated hydroxy anisole]				160.58
COc1cc2c(cc1OC)C(=O)C(CC1CCN(Cc3ccccc3)CC1)C2 (stereo not drawn) [donepezil]	gradual decreases	gradual decreases		
